Patent publication US6337346B1 (University of North Carolina at Chapel Hill, priority 1998, dated 2002)

Legend:
human tumor cell lines [1] = experiment: NCI in vitro screen, mean over all cell lines tested; conditions: for GI50: Homo sapiens, read-out: Cytotoxicity log GI50, Mean Value (converted); for Cytotoxicity log GI50, Mean Value: Mean value over all cell lines tested (58 human tumor cell lines), Table 2 (numbering of Examples 1-13)
Description: (§1) (Activity is defined as log GI50<−4 where GI50 is the molar concentration causing 50% cell growth inhibition).

UACC-62 = experiment: NCI in vitro disease-oriented tumor cells screen; assay type: cell-based, human; conditions: Melanoma UACC-62, Table 2, average of at least two testings; for GI50: Homo sapiens, read-out: Cytotoxicity log GI50 (converted)
Description: as §1

MDA-MB-435 = experiment: NCI in vitro disease-oriented tumor cells screen; assay type: cell-based, human; conditions: Breast Cancer MDA-MB-435, Table 2 (numbering of Examples 1-13), average of at least two testings; for GI50: Homo sapiens, read-out: Cytotoxicity log GI50 (converted)
Description: as §1

NCI-H23 = experiment: NCI in vitro disease-oriented tumor cells screen; assay type: cell-based, human; conditions: Non-Small Cell Lung Cancer NCI-H23, Table 2 (numbering of Examples 1-13), average of at least two testings; for GI50: Homo sapiens, read-out: Cytotoxicity log GI50 (converted)
Description: as §1

HL-60(TB) = experiment: NCI in vitro disease-oriented tumor cells screen; assay type: cell-based, human; conditions: Leukemia HL-60(TB), Table 2, average of at least two testings; for GI50: Homo sapiens, read-out: Cytotoxicity log GI50 (converted)
Description: as §1

human tumor cell lines [2] = tested on: human tumor cell lines
Description: as §1

LOX IMVI = experiment: NCI in vitro disease-oriented tumor cells screen; assay type: cell-based, human; conditions: Melanoma LOX IMVI, Table 2 (numbering of Examples 1-13), average of at least two testings; for GI50: Homo sapiens, read-out: Cytotoxicity log GI50 (converted)
Description: as §1

SK-MEL-2 = experiment: NCI in vitro disease-oriented tumor cells screen; assay type: cell-based, human; conditions: Melanoma SK-MEL-2, Table 2, average of at least two testings; for GI50: Homo sapiens, read-out: Cytotoxicity log GI50 (converted)
Description: as §1

M14 = experiment: NCI in vitro disease-oriented tumor cells screen; assay type: cell-based, human; conditions: Melanoma M14, Table 2, average of at least two testings; for GI50: Homo sapiens, read-out: Cytotoxicity log GI50 (converted)
Description: as §1

BT-549 = experiment: NCI in vitro disease-oriented tumor cells screen; assay type: cell-based, human; conditions: Breast Cancer BT-549, Table 2, average of at least two testings; for GI50: Homo sapiens, read-out: Cytotoxicity log GI50 (converted)
Description: as §1

MALME-3M = experiment: NCI in vitro disease-oriented tumor cells screen; assay type: cell-based, human; conditions: Melanoma MALME-3M, Table 2, average of at least two testings; for GI50: Homo sapiens, read-out: Cytotoxicity log GI50 (converted)
Description: as §1

NCI-H522 = experiment: NCI in vitro disease-oriented tumor cells screen; assay type: cell-based, human; conditions: Non-Small Cell Lung Cancer NCI-H522, Table 2, average of at least two testings; for GI50: Homo sapiens, read-out: Cytotoxicity log GI50 (converted)
Description: as §1

SK-MEL-5 = experiment: NCI in vitro disease-oriented tumor cells screen; assay type: cell-based, human; conditions: Melanoma SK-MEL-5, Table 2 (numbering of Examples 1-13), average of at least two testings; for GI50: Homo sapiens, read-out: Cytotoxicity log GI50 (converted)
Description: as §1

MDA-N = experiment: NCI in vitro disease-oriented tumor cells screen; assay type: cell-based, human; conditions: Breast Cancer MDA-N, Table 2 (numbering of Examples 1-13), average of at least two testings; for GI50: Homo sapiens, read-out: Cytotoxicity log GI50 (converted)
Description: as §1

OVCAR-8 = experiment: NCI in vitro disease-oriented tumor cells screen; assay type: cell-based, human; conditions: Ovarian Cancer OVCAR-8, Table 2, average of at least two testings; for GI50: Homo sapiens, read-out: Cytotoxicity log GI50 (converted)
Description: as §1

HS 578T = experiment: NCI in vitro disease-oriented tumor cells screen; assay type: cell-based, human; conditions: Breast Cancer HS 578T, Table 2, average of at least two testings; for GI50: Homo sapiens, read-out: Cytotoxicity log GI50 (converted)
Description: as §1

UACC-257 = experiment: NCI in vitro disease-oriented tumor cells screen; assay type: cell-based, human; conditions: Melanoma UACC-257, Table 2, average of at least two testings; for GI50: Homo sapiens, read-out: Cytotoxicity log GI50 (converted)
Description: as §1

SK-MEL-28 = experiment: NCI in vitro disease-oriented tumor cells screen; assay type: cell-based, human; conditions: Melanoma SK-MEL-28, Table 2, average of at least two testings; for GI50: Homo sapiens, read-out: Cytotoxicity log GI50 (converted)
Description: as §1

OVCAR-3 = experiment: NCI in vitro disease-oriented tumor cells screen; assay type: cell-based, human; conditions: Ovarian Cancer OVCAR-3, Table 2 (numbering of Examples 1-13), average of at least two testings; for GI50: Homo sapiens, read-out: Cytotoxicity log GI50 (converted)
Description: as §1

Compound	GI50 (human tumor cell lines [1])	GI50 (UACC-62)	GI50 (MDA-MB-435)	GI50 (NCI-H23)	GI50 (HL-60(TB))	overall cytotoxicity / potency (in words) (human tumor cell lines [2])	GI50 (LOX IMVI)	GI50 (SK-MEL-2)	GI50 (M14)	GI50 (BT-549)	GI50 (MALME-3M)	GI50 (NCI-H522)	GI50 (SK-MEL-5)	GI50 (MDA-N)	GI50 (OVCAR-8)	GI50 (HS 578T)	GI50 (UACC-257)	GI50 (SK-MEL-28)	GI50 (OVCAR-3)	melting point	further results
CC(O)c1cc2c(s1)C(=O)c1c(C(C)O)csc1C2=O (stereo not drawn) [Compound 14, 2,7-Bis(1′-hydroxyethyl)-4,8-dihydrobenzo [1,2-b:4,5-b′]dithiophene-4,8-dione]	0.148 µM	0.0324 µM	0.0178 µM	0.0339 µM	0.0112 µM	overall cytotoxicity comparable to the monosubstituted compounds	0.055 µM	0.112 µM	0.0575 µM	0.162 µM	0.0275 µM	0.302 µM	0.0126 µM	0.0209 µM	0.219 µM	0.316 µM	0.0617 µM	0.186 µM	0.0117 µM	–	–
CC(=O)c1cc2c(s1)C(=O)c1sccc1C2=O [Compound 19, 2-Acetyl-4,8-dihydrobenzo[1,2-b:5,4-b′]dithiophene-4,8-dione]	0.0468 µM	0.017 µM	< 0.01 µM	0.0182 µM	–	–	< 0.01 µM	0.0331 µM	0.0174 µM	0.0178 µM	0.0162 µM	0.0174 µM	< 0.01 µM	< 0.01 µM	0.0309 µM	0.0363 µM	0.0138 µM	< 0.01 µM	< 0.01 µM	–	–
CC(O)c1cc2c(s1)C(=O)c1sccc1C2=O (stereo not drawn) [Compound 20, 2-(1′-Hydroxyethyl)-4,8-dihydrobenzo[1,2-b:5,4-b′]dithiophene-4,8-dione]	0.135 µM	0.0224 µM	0.0162 µM	0.0155 µM	0.0692 µM	excellent overall cytotoxicity	0.024 µM	0.0309 µM	0.0148 µM	0.0347 µM	0.0191 µM	0.123 µM	0.0135 µM	0.0186 µM	0.162 µM	0.0575 µM	0.0182 µM	0.0389 µM	0.117 µM	170 to 172 °C	–
CC(=O)OC(C)c1cc2c(s1)C(=O)c1sccc1C2=O (stereo not drawn) [Compound 21, 2-(1′-Acetoxyethyl)-4,8-dihydrobenzo[1,2-b:5,4-b′]dithiophene-4,8-dione]	0.794 µM	1.38 µM	0.182 µM	0.219 µM	1.74 µM	among the least active	0.209 µM	0.417 µM	0.162 µM	0.282 µM	0.12 µM	0.871 µM	0.107 µM	0.0191 µM	1.41 µM	0.513 µM	0.214 µM	0.646 µM	0.49 µM	165 to 166 °C	–
CC(=O)c1cc2c(s1)C(=O)c1sc(C(C)=O)cc1C2=O [Compound 23]	–	–	–	–	–	–	–	–	–	–	–	–	–	–	–	–	–	–	–	–	Cytotoxicity log GI50, Mean Value (human tumor cell lines [1]): −6.47 M; Cytotoxicity log GI50 (UACC-62): −6.63 M; Cytotoxicity log GI50 (MDA-MB-435): −6.64 M; Cytotoxicity log GI50 (NCI-H23): −6.54 M; Cytotoxicity log GI50 (LOX IMVI): −7.65 M; Cytotoxicity log GI50 (SK-MEL-2): −6.79 M; Cytotoxicity log GI50 (M14): −6.36 M; Cytotoxicity log GI50 (BT-549): −6.04 M; Cytotoxicity log GI50 (MALME-3M): −6.65 M; Cytotoxicity log GI50 (NCI-H522): −6.42 M; Cytotoxicity log GI50 (SK-MEL-5): −6.50 M; Cytotoxicity log GI50 (MDA-N): −6.71 M; Cytotoxicity log GI50 (OVCAR-8): −6.64 M; Cytotoxicity log GI50 (HS 578T): −6.55 M; Cytotoxicity log GI50 (UACC-257): −6.78 M; Cytotoxicity log GI50 (SK-MEL-28): −6.69 M; Cytotoxicity log GI50 (OVCAR-3): −7.53 M
CC(O)c1cc2c(s1)C(=O)c1sc(C(C)O)cc1C2=O (stereo not drawn) [Compound 24]	–	–	–	–	–	–	–	–	–	–	–	–	–	–	–	–	–	–	–	–	Cytotoxicity log GI50, Mean Value (human tumor cell lines [1]): −6.32 M; Cytotoxicity log GI50 (UACC-62): −6.61 M; Cytotoxicity log GI50 (MDA-MB-435): −6.80 M; Cytotoxicity log GI50 (NCI-H23): −6.72 M; Cytotoxicity log GI50 (HL-60(TB)): −6.36 M; Cytotoxicity log GI50 (LOX IMVI): −6.92 M; Cytotoxicity log GI50 (SK-MEL-2): −6.69 M; Cytotoxicity log GI50 (M14): −6.81 M; Cytotoxicity log GI50 (BT-549): −6.71 M; Cytotoxicity log GI50 (MALME-3M): −6.82 M; Cytotoxicity log GI50 (NCI-H522): −6.40 M; Cytotoxicity log GI50 (SK-MEL-5): −6.85 M; Cytotoxicity log GI50 (MDA-N): −6.83 M; Cytotoxicity log GI50 (OVCAR-8): −6.58 M; Cytotoxicity log GI50 (HS 578T): −6.50 M; Cytotoxicity log GI50 (UACC-257): −6.79 M; Cytotoxicity log GI50 (SK-MEL-28): −6.63 M; Cytotoxicity log GI50 (OVCAR-3): −6.44 M
